{"source": "paper PMC12933331", "about": "“A Cryptic Pocket Allosterically Modulates Oligosaccharide Binding to DC-SIGN” (JACS Au, 2026)", "key": {"DC-SIGN ECD T314A [1]": {"biological_target": "T1, DC-SIGN ECD T314A (Homo sapiens, UniProt Q9NNX6, T314A)", "T1 construct": "acids 64 -404 of DC -SIGN; made in house", "T1 sequence (Q9NNX6 64-404 T314A)": "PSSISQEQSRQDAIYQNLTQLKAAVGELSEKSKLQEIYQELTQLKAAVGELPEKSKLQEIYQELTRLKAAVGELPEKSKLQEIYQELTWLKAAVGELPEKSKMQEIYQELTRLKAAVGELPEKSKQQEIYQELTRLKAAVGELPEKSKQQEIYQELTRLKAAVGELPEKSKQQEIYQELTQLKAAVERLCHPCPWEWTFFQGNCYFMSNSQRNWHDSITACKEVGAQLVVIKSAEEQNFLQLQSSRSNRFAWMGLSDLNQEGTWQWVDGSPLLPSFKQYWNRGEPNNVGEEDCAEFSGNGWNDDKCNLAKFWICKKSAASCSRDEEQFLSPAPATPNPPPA", "test": "Plate-based horseradish peroxidase assay", "assay_type": "binding", "settings": "constant HRP concentration (1 µg mL-1); read-out: EC50 (mean ± SD), CaCl2 titration", "description": "Immobilization and blocking were done as described above. After blocking, plates were washed three times with immobilization buffer. containing 1 µg mL-1 HRP was serially diluted on the plate and then incubated at RT for 2 hours."}, "DC-SIGN ECD wildtype [2]": {"biological_target": "T2, DC-SIGN ECD wildtype (Homo sapiens, UniProt Q9NNX6)", "T2 construct": "acids 64 -404 of DC -SIGN; made in house", "T2 sequence (Q9NNX6 64-404)": "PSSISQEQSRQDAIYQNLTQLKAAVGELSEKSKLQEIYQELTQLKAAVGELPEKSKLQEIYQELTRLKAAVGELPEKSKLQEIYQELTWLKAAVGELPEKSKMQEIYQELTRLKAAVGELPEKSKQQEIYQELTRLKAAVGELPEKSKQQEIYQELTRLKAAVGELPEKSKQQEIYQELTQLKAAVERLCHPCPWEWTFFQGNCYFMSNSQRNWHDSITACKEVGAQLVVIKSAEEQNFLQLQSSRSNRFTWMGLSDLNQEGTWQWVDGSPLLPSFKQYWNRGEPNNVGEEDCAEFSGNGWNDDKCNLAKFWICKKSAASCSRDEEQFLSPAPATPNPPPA", "test": "Plate-based horseradish peroxidase assay", "assay_type": "binding", "settings": "constant HRP concentration (1 µg mL-1); read-out: EC50 (mean ± SD), CaCl2 titration", "procedure": "(§1) chromatography. Purified protein was dialyzed against 25 mM HEPES, 150 mM NaCl, 10 mM CaCl2, pH 7.4, concentrated using a centrifugal spin filter, snap frozen and then stored at -80°C. […]\n(§2) Plate-based horseradish peroxidase assay\n(§3) General remarks. Unless stated otherwise, all reagents and buffers were obtained from Sigma Aldrich or Carl Roth. Measurements were done on a Enspire Multimode Plate Reader (PerkinElmer). GraphPad Prism was used for all data processing and analysis.\n(§4) CaCl2 titration. 100 µg mL-1 DC-SIGN ECD were immobilized in immobilization buffer (25 mM HEPES, 150 mM NaCl, 25 mM CaCl 2, pH 7.4) overnight at 4°C on transparent Nunc Maxisorp 96-well plates (Thermo Fisher). Protein solution was removed, and plates were washed three times with immobilization buffer and then blocked for 2 hours at 4°C with blocking buffer (25 mM HEPES, 150 mM NaCl, 25 mM CaCl 2, 2% BSA, 0.01% Tween -20). Plates were washed twice with 25 mM HEPES, 150 mM NaCl, 5 mM EDTA, pH 7.4 and twice with 25 mM HEPES, 150 mM NaCl, pH 7.4 to remove residual Ca 2+. To titrate Ca2+, CaCl2 in 25 mM HEPES, 150 mM NaCl, pH 7.4 was serially diluted on the plate at a constant HRP concentration of 1 µg mL-1 and then incubated at RT for 2 hours. Following incubation, plates were washed three times with 25 mM HEPES, 150 mM NaCl, pH 7.4 and bound HRP was detected using a TMB substrate kit (Thermo Fisher) and 0.18 M H2SO4 according to manufacturer’s instructions. Absorption was […]\n(§5) HRP titration. Immobilization and blocking were done as described above. After blocking, plates were washed three times with immobilization buffer. HRP in immobilization buffer was serially diluted on the plate at a constant concentration CaCl2 concentration of 25 mM and then incubated […]\n(§6) at RT for 2 hours. Following incubation, plates were washed three times with immobilization buffer and HRP was detected as described above.\n(§7) Immobilization and blocking were done as described above. After blocking, plates were washed three times with immobilization buffer. Mannose in immobilization buffer containing 1 µg mL-1 HRP was serially diluted on the plate and then incubated at RT for 2 hours.\n(§8) Following incubation, plates were washed three times with immobilization buffer and HRP was detected as described above.\n(§9) All conditions were measured in technical triplicates, averaged and normalized to the control well […]\n(§10) IC50 and EC50 values and hill […]\n(§11) slopes (nH) were obtained in a four-parameter fit according to equation (1).\n(§12) Y = bottom + top − bottom (1)\n(§13) With bottom and top representing the minimal and maximal response plateaus, respectively, Y as the observed response and X the logarithmic concentration of the ligand . […]\n(§14) Biosynth. Spectra were processed in TopSpin 4.2.0 and data analysis was performed using CCPN Analysis 3.2.0 for 2D spectra and in MestreNova for 1D spectra.2 Further analysis was done using GraphPad Prism and in-house python scripts."}, "DC-SIGN ECD M270F [3]": {"biological_target": "T3, DC-SIGN ECD M270F (Homo sapiens, UniProt Q9NNX6, M270F)", "T3 construct": "acids 64 -404 of DC -SIGN; made in house", "T3 sequence (Q9NNX6 64-404 M270F)": "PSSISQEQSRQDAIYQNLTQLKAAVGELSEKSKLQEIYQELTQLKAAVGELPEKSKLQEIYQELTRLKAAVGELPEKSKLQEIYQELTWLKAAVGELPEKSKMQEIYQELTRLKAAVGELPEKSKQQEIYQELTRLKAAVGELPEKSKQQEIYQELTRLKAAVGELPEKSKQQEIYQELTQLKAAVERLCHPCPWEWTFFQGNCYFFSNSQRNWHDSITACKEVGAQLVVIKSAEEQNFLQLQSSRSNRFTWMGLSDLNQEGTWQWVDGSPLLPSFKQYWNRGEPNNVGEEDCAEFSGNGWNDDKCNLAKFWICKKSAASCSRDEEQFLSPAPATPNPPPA", "test": "Plate-based horseradish peroxidase assay", "assay_type": "binding", "settings": "constant HRP concentration (1 µg mL-1); read-out: EC50 (mean ± SD), CaCl2 titration", "procedure": "as §1, §2, §3, §4, §5, §6, §7, §8, §9, §10, §11, §12, §13, §14"}, "DC-SIGN ECD wildtype [4]": {"biological_target": "T2, DC-SIGN ECD wildtype", "test": "19F R2-filtered NMR reporter assay, CaCl2 titration", "settings": "binding of 0.1 mM ManNAcF3 reporter, R2,obs", "procedure": "(§15) 19F R2-filtered NMR reporter displacement assay. The 19F R2-filtered NMR reporter displacement assay was adjusted for CaCl2 titrations with DC-SIGN ECD as previously described.1 Apparent transverse relaxation rates R2,obs were obtained using the CPMG pulse sequence with a relaxation delay d1 of 2.0 s, acquisition time tacq of 0.8 s and a CPMG frequency νCPMG of 500 Hz.\n(§16) DC-SIGN ECD was dialyzed four times against 25 mM HEPES, 150 mM NaCl (pH 7.4) to remove Ca2+ prior to measurements. Samples contained 25 μM DC-SIGN ECD in 25 mM HEPES, 150 mM NaCl (pH 7.4) supplemented with 10% D2O and 0.1 mM of the ManNAcF3 reporter molecule.\n(§17) TFA at a concentration of 0.1 mM served as an internal reference. 512 scans were recorded to ensure sufficient signal to noise ratios. R2,obs values were obtained by fitting equation 5 to integrals I of the 19F resonance of the reporter at different relaxation times T with I0 as integral at T = 0 s. […]"}, "DC-SIGN ECD M270F [5]": {"biological_target": "T3, DC-SIGN ECD M270F", "test": "19F R2-filtered NMR reporter assay, CaCl2 titration", "settings": "binding of 0.1 mM ManNAcF3 reporter, R2,obs", "procedure": "as §15, §16, §17"}, "DC-SIGN ECD T314A [6]": {"biological_target": "T1, DC-SIGN ECD T314A", "test": "19F R2-filtered NMR reporter assay, CaCl2 titration", "settings": "binding of 0.1 mM ManNAcF3 reporter, R2,obs", "procedure": "as §15, §16, §17"}, "DC-SIGN CRD M270F": {"biological_target": "T4, DC-SIGN CRD M270F (Homo sapiens, UniProt Q9NNX6, M270F)", "T4 construct": "acids 253-404 of DC-SIGN; His-tag (N); made in house", "T4 sequence (Q9NNX6 253-404 M270F)": "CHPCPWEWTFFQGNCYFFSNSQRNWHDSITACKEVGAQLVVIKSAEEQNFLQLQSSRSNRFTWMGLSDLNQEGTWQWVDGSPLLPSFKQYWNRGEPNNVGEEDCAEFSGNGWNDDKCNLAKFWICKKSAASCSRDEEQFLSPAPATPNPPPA", "test": "1H-15N HSQC NMR titration (CSP fitting)", "assay_type": "binding", "procedure": "(§18) 1H-15N HSQC NMR. 1H-15N HSQC NMR spectra were collected with 256 increments in the nitrogen and 24 scans per increment and 2048 points in the direct dimension. The relaxation delay d1 was set to 1.0 s. The W5 WATERGATE pulse sequence was used for solvent suppression.3, 4 Experiments were performed at a CRD concentration of 200 μM in 20 mM MES, 40 mM NaCl, 10 mM CaCl2 (pH 6.0) supplemented with 10% D 2O and, if applicable, varying concentrations of ligands. Samples of apo DC -SIGN CRD were prepared as described for 1H-13C HSQC NMR experiments. A previously published resonance assignment of DC-SIGN CRD was transferred to the nearest neighbor in a reference spectrum recorded without ligand.5 Unassigned, overlapping or disappearing peaks were not assigned.\n(§19) CSPs induced by mutations or ligands were calculated as previously described according to […]\n(§20) The empirical weighing factor a was set to 0.15 for all calculations.\n(§21) Dissociation constants (K Ds) were determined in titration experiments at five ligand concentratio ns […]\n(§22) in the fast exchange regime were used for the fitting procedure via equation 4 in a global two - […]\n(§23) with CSP max corresponding to the CSP values upon saturation and the bound protein fraction p b […]\n(§24) CHESPA was performed as previously described .7 The chemical shift vector between apo and holo wildtype DC -SIGN CRD was used as reference perturbation to calculate the vector product to […]"}, "DC-SIGN CRD wildtype": {"biological_target": "T5, DC-SIGN CRD wildtype (Homo sapiens, UniProt Q9NNX6)", "T5 construct": "acids 253-404 of DC-SIGN; His-tag (N); made in house", "T5 sequence (Q9NNX6 253-404)": "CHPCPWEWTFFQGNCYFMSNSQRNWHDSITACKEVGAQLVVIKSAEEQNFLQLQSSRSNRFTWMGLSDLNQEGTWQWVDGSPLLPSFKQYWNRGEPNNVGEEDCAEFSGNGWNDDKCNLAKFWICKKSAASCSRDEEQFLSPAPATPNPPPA", "test": "1H-15N HSQC NMR titration (CSP fitting)", "assay_type": "binding", "procedure": "as §18, §19, §20, §21, §22, §23, §24"}, "DC-SIGN CRD T314A": {"biological_target": "T6, DC-SIGN CRD T314A (Homo sapiens, UniProt Q9NNX6, T314A)", "T6 construct": "acids 253-404 of DC-SIGN; His-tag (N); made in house", "T6 sequence (Q9NNX6 253-404 T314A)": "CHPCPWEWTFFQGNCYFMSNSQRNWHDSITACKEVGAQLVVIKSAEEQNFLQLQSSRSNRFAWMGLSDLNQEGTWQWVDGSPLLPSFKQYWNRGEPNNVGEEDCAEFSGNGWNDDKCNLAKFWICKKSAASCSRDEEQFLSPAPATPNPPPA", "test": "1H-15N HSQC NMR titration (CSP fitting)", "assay_type": "binding", "settings": "Lewis X titration, three concentrations, saturation not reached (estimated)", "procedure": "as §18, §19, §20, §21, §22, §23, §24"}, "[7]": {"settings": "Lewis X titration, three concentrations, saturation not reached (estimated)"}}}
{"smiles": "[Ca+2].[Cl-].[Cl-]", "note": "[CaCl2]", "values": [{"measurement": "EC50", "setting": "DC-SIGN ECD T314A [1]", "value": "1200 ± 300", "unit": "µM"}, {"measurement": "EC50", "setting": "DC-SIGN ECD wildtype [2]", "value": "1000 ± 400", "unit": "µM"}, {"measurement": "EC50", "setting": "DC-SIGN ECD M270F [3]", "value": "700 ± 200", "unit": "µM"}, {"measurement": "hill slope, CaCl2 titration", "setting": "DC-SIGN ECD wildtype [4]", "value": 2.0}, {"measurement": "EC50", "setting": "DC-SIGN ECD wildtype [4]; 25 μM ECD", "value": 300, "unit": "µM"}, {"measurement": "hill slope, CaCl2 titration", "setting": "DC-SIGN ECD M270F [5]", "value": 1.4}, {"measurement": "EC50", "setting": "DC-SIGN ECD M270F [5]; 25 μM ECD", "value": 200, "unit": "µM"}, {"measurement": "hill slope, CaCl2 titration", "setting": "DC-SIGN ECD T314A [6]", "value": 1.7}, {"measurement": "EC50", "setting": "DC-SIGN ECD T314A [6]; 25 μM ECD", "value": 600, "unit": "µM"}]}
{"smiles": "CC(=O)N[C@H]1C(O)O[C@H](CO)[C@@H](O[C@@H]2O[C@H](CO)[C@H](O)[C@H](O)[C@H]2O)[C@@H]1O[C@@H]1O[C@@H](C)[C@@H](O)[C@@H](O)[C@@H]1O", "note": "(some centres unmarked) [Lewis X, Lewis X trisaccharide]", "values": [{"measurement": "Kd", "setting": "DC-SIGN CRD M270F; [7]", "value": "600 ± 200", "unit": "µM"}, {"measurement": "Kd", "setting": "DC-SIGN CRD wildtype; [7]", "value": "1100 ± 200", "unit": "µM"}, {"measurement": "Kd", "setting": "DC-SIGN CRD T314A", "value": "1400 ± 100", "unit": "µM"}]}
{"smiles": "Oc1ccccc1", "note": "[phenol]", "values": [{"measurement": "CSPs on addition of phenol", "setting": "DC-SIGN CRD M270F; 20 mM phenol, holo CRD, compared with wildtype", "value": "drastically reduced CSPs"}, {"measurement": "CSPs on addition of phenol", "setting": "DC-SIGN CRD wildtype; 20 mM phenol, holo 15N-labeled CRD, residues of cryptic pocket and upper cavity", "value": "strong chemical shift perturbations"}]}
